In US20110054014A1, “PRENYLFLAVANONE COMPOUNDS AND USES THEREOF” (NatureWise Biotech & Medicals Corporation, priority 2008, published 2011):
pIC50: −log10 of the molar value. Like-named read-outs stand apart in the source and are kept apart here.

Test system: Human breast cancer MCF-7 and MDA-MB-231 cells
Experiment: Cytotoxicity assay (trypan blue exclusion)
Settings: for pIC50: read-out: IC50 values
Procedure: Human breast cancer MCF-7 and MDA-MB-231 cells were purchased from the Food Industry Research and Development Institute (Hsinchu, Taiwan). The cells were cultured in Dulbecco's modified Eagle's medium (Gibco) containing 10% fetal bovine serum (FBS), a 1% dilution of penicillin-streptomycin, and 2 mM glutamine. Cells were maintained at 37° C. in a humidified atmosphere of 95% air and 5% CO2. However, MDA-MB-231 cells were cultured in L-15 medium (Gibco) containing 10% fetal bovine serum (FBS), a 1% dilution of penicillin-streptomycin, and 2 mM glutamine. Cells were maintained at 37° C. in a humidified atmosphere of 100% air and 0% CO2.
The cells (1.5×10^6 per dish) were cultured in a 100-mm dish and incubated for 14 h prior to treatment with DMSO or with different concentrations of propolins (2.5, 5.0, 10, and 20.0 μg/mL) for 48 h. The propolins were small compounds with their MWs ranging from 408-492 Da. These values were converted to their respective molarities.
The cells were counted and their viability was determined by trypan blue exclusion assay. The activity was shown as IC50 value (the concentration required to induce 50% cytotoxicity), and the average value was obtained from triplicate data points.

Row | SMILES | pIC50 (concentration required to induce 50% cytotoxicity, 48 h treatment, human breast cancer cells, cell line not given, one representative of three independent experiments) | pIC50 (Homo sapiens, 48 h) | cytotoxic activity against human breast cancer cells (conclusion in words from Table 2)
1 | CC(C)=CCC/C(C)=C/Cc1cc([C@@H]2CC(=O)c3c(O)cc(O)cc3O2)cc(O)c1O [Propolin F, reference compound] | 4.33 |  | 
2 | CC(C)=CCC/C(C)=C/CC/C(C)=C/Cc1c(O)cc2c(c1O)C(=O)C[C@@H](c1ccc(O)c(O)c1)O2 [Propolin I, 5,7,3′,4′-tetrahydroxy-6-farnesylflavanone] |  | 4.99 | cytotoxic activity
3 | CC(C)=CCC/C(C)=C/Cc1c(O)cc2c(c1O)C(=O)C[C@@H](c1ccc(O)cc1)O2 [Propolin J, 5,7,4′-trihydroxy-6-geranylflavanone] |  | 4.43 | 
